Test results reported in patent US10709784B2, “Metal chelating compositions and methods for controlling the growth or activities of a living cell or organism” (CHELATION PARTNERS INCORPORATED, priority 2011, dated 2020).
Like-named read-outs stand apart in the source and are kept apart here. Blank lines part the entries; values can stand above or below the molecule they belong to.

Columns and labels:
E. coli = test: MIC of chelators in Fe-restricted RPMI; type: cell-based, Escherichia coli
Method: (§1) Soluble chelating compositions prepared as in example 4 and example 6 as well as the commercially clinically used low molecular weight (<1500 Da) chelators desferal (Novartis Pharmaceutical Company) and deferiprone (Apotex Pharmaceutical Company) were tested as to their MICs against representative pathogenic bacterial species in RPMI medium that had been treated as in example 38 but to which Fe was re-added to known concentrations that permitted growth of the bacteria under partially Fe restrictive conditions, i.e., so as to simulate the low Fe environmental supply available during infection by these bacteria in man or other animals. MIC testing was done in a manner similar to that described for example 15 but with test series being conducted in multi-well microtiter plates, each well providing a separate treatment test.
(§2) The clinically used chelators were not inhibitory in the case of Pseudomonas aeruginosa with no inhibition observed at the highest concentration tested (300 μg/ml for desferal and 100 μg/ml for deferiprone). Staphylococcus aureus was not inhibited by desferal and was inhibited by deferiprone to a lesser extent than for the soluble compositions of the present invention. Conversely, Escherichia coli was not inhibited by deferiprone but was inhibited substantially by desferal.

P. aeruginosa = test: MIC of chelators in Fe-restricted RPMI; type: cell-based, Pseudomonas aeruginosa
Method: as §1, §2

S. aureus = test: MIC of chelators in Fe-restricted RPMI; type: cell-based; conditions: Staphylococcus aureus
Method: as §1, §2

[1] = Overall Fe association constants; type: binding; conditions: Fe (III)
Excerpt: Measurement of the Fe binding strengths can be measured and compared for different chelating materials.

[2] = system: Clinical isolates of Staphylococcus aureus; test: Growth inhibition of clinical isolates in MHB (turbidity 600 nm); type: cell-based; conditions: over 7 mM Fe binding equivalents, overnight
Excerpt: Clinical isolates of Staphylococcus aureus as obtained from human infections were obtained and are obtainable from the culture collection of Warren Grubb, Curtin University, Perth, Australia. It should be noted that the clinical isolates as obtained from patients at the Royal Perth Hospital in Perth Australia can be expected to have strong similarities to other clinical isolates of this bacterium as obtained elsewhere in the world as the genetic determinants of antibiotic resistance characteristics in Staphylococcus aureus are now generally understood. Thus, similar results to those shown in examples 14-17 can be expected with other clinical isolates as obtained elsewhere and having similar antibiotic resistance patterns to those tested for these examples. […]
A range of dilutions of the deferiprone or soluble chelating composition was prepared in MHB in test tubes so as to provide a range of added iron chelating capacity as measured in Fe binding equivalents. […] The tubes were incubated at an angle on a reciprocating shaker at 37° C. overnight and the growth results were scored as a percentage of growth based on measured turbidity at a wavelength of 600 nm with a spectrophotometer of the test sample, as compared to a control samples that had received no added deferiprone or soluble chelating composition. […]

[3] = system: antibiotic resistant strains of Staphylococcus aureus; test: NCCLS MIC antibiotic sensitivity with added chelator; type: cell-based; conditions: strain WBG525
Method: Sensitive or antibiotic resistant strains of Staphylococcus aureus (S. aureus) were grown on blood agar plates overnight at 37° C. Four to six individual colonies of each strain were harvested into Mueller-Hinton broth (MHB) and incubated at 37° C. until they reached an optical density equal to or exceeding a 0.5 McFarland standard. The culture was diluted with MHB to equal 0.5 McFarland standard. Dilutions (10^−1) of these standards were used for inocula. Various stains of antibiotic resistant Staphylococcus aureus were used for these tests as shown in the results below. It should be appreciated that growing the bacterial strains on blood agar and then in MHB ensured the inoculum was not restricted for iron prior to the test but rather the bacterial cells were with ample endogenous iron supply.
A range of two-fold dilutions of a test antibiotic was prepared in MHB. […] Soluble and insoluble chelating compositions, as prepared in Example 6 or Example 5, or the free iron chelating agent deferiprone were added to the antibiotic containing tubes at known concentrations of iron binding capacity (referred to as iron binding equivalents) to allow direct comparison of the different compositions or free chelator. The final volume per tube was 500 μl. Bacterial inoculum, 25 μl of the 10^−1 dilutions of the appropriate S. aureus strain was added to each tube. The tubes were incubated at an angle on a reciprocating shaker at 37° C. overnight and results were scored as growth based on turbidity or no growth (lack of turbidity). The Minimum Inhibitory Concentration (MIC) for the antibiotic was determined from the growth results.
A series of tests was set up as in Example 15 with various antibiotic anti-cellular agents. The clinically isolated strains were obtained from the culture collection of Warren Grubb, Curtin University, Perth, Australia.
A series of antibiotic sensitivity tests was set up as in example 16 utilizing the soluble chelating compositions as prepared in Example 6. Separate test series with different clinically isolated Staphylococcus aureus strains, as obtained from the culture collection of Warren Grubb, Curtin University, Perth, Australia, and various antibiotics were employed but for each series a control test comprising addition of iron sufficient to supply two times the chelating capacity of the supplied chelating composition was also included.

[4] = system: Candida albicans ATCC 10231; test: Growth with chelating materials of different molecular weight, 84 hours; type: cell-based; conditions: 30° C., defined medium without added iron, FIG. 8
Method: Candida albicans ATCC 10231 was tested for its sensitivities to: the medical chelator deferiprone (#1 in the graph of FIG. 8) (a product of Apotex Pharmaceuticals); the precursor chemicals used for the preparation of soluble chelating compositions of the present invention, including 3-hydroxy-2-methyl-4-pyrone (#2 in the graph of FIG. 8), AHMP as from Example 1 (#3 in the graph of FIG. 8) and MAHMP as from Example 2 (#4 in the graph of FIG. 8) and also the soluble chelating composition as from Example 4 (#5 in the graph of FIG. 8). The yeast was grown in defined medium as for Example 18 with no additional added iron (i.e., the only but adequate Fe available for the yeast was contributed from being present along with the other added medium components). Growth of the yeast in the defined media with added test chelating materials was compared to control samples that had not received any of the chelating materials following 84 hours of incubation and growth at 30° C. […] These chelators being internalized by the yeast were incapable of restricting iron supply to the yeast cells. […] Thus, low molecular weight chelators such as deferiprone and similar compounds permitted growth while the soluble chelating composition that contained functional groups similar to deferiprone but was a molecular weight higher than 1500 Daltons restricted growth, eventhough the various compounds tested were each capable of binding iron through their pyridinone functionality.

[5] = system: Candida albicans ATCC 10231; test: Preservative agent MIC (80% inhibition) challenge test with soluble chelator; type: cell-based
[6] = system: Candida albicans ATCC 10231; test: Challenge growth test, sorbate and chelator within a semi-permeable device; type: cell-based; conditions: sorbate […] with 0.3 mg soluble chelator (example 4) in the semi-permeable device
Excerpt: (§3) In one such culture, only medium was present as a control. […] The chelator was not added directly to the culture medium but was provided as within a dialysis membrane within the culture medium, such that only the external surfaces of the dialysis membrane device were in contact with the bulk of the culture medium, the chelator being within the membrane bag. The dialysis membrane was of the same type that had been used to prepare the soluble chelator and thus its use here ensured that the added chelator would be retained within the membrane device as in contact with the culture medium from within a semi-permeable membrane, i.e., the dialysis tubing. Thus the chelator would not be in direct physical contact with the yeast cells while any iron or sorbate or other low molecular weight media constituents or low molecular weight yeast cell products in the test milieu could diffuse in or out of the semi-permeable device. In a fourth test, 0.3 mg soluble chelator within a similar dialysis bag was added but sorbate was not added to the medium. All four test cultures were inoculated with the yeast and growth was monitored at intervals in the test cultures by optical density measurement at 600 nm over a 120 hr test period.

[7] = system: Candida albicans ATCC 10231; test: Fluconazole MIC (80% growth inhibition) with soluble chelator; type: cell-based
Method: Candida albicans ATCC 10231, yeast cells, as grown in defined medium with no additional added Fe as in example 18, were tested in the same media for their sensitivities to fluconazole, an anti-cellular agent as proto-typical of the azole class of antibiotics that are commonly used to control fungal growth and pathogenesis in humans and with fluconazole plus the soluble chelating composition, as prepared in Example 4. Fluconazole as a typical member of the azole class of anti-fungal antibiotics that function by inhibiting sterol synthesis.

[8] = system: Candida albicans ATCC 10231; test: Challenge growth test, fluconazole and chelator within a semi-permeable device; type: cell-based
Excerpt: as §3, with “Thus the chelator would not be in direct physical contact with the yeast cells while any iron or sorbate or other low molecular weight media constituents or low molecular weight yeast cell products in the test milieu could diffuse in or out of the semi-permeable device. In a fourth test, 0.3 mg soluble chelator within a similar dialysis bag was added but sorbate was not added to the medium.” left out

[9] = Escherichia coli, treated RPMI with 0.02 μM Fe, read-out: MIC
[10] = Pseudomonas aeruginosa, treated RPMI with 0.02 μM Fe, read-out: MIC

SMILES: CC(=O)N(O)CCCCCNC(=O)CCC(=O)N(O)CCCCCNC(=O)CCC(=O)N(O)CCCCCN [DESFERAL, deferoxamine]
MIC (E. coli; Escherichia coli, treated RPMI with 0.09 μM Fe): 0.59 mg/L
MIC (E. coli; [9]): 0.009 mg/L
MIC (P. aeruginosa; [10]): > 300 mg/L
MIC (P. aeruginosa; treated RPMI with 0.09 μM Fe): >300 mg/L
MIC (S. aureus; treated RPMI with 0.02 μM Fe): > 300 mg/L
MIC (S. aureus; treated RPMI with 0.09 μM Fe): > 300 mg/L

MIC Streptomycin ([3]; chelator added 7.4 mM Fe binding equivalents, * slight growth <5% of control turbidity at 640 μg/ml): >640* μg/ml
MIC (E. coli; [9]): > 100 mg/L
MIC (E. coli; treated RPMI with 0.09 μM Fe): >100 mg/L
MIC (P. aeruginosa; [10]): > 100 mg/L
MIC (P. aeruginosa; treated RPMI with 0.09 μM Fe): >100 mg/L
MIC (S. aureus; treated RPMI with 0.02 μM Fe): 12.5 mg/L
MIC (S. aureus; treated RPMI with 0.09 μM Fe): 25 mg/L
SMILES: Cc1c(O)c(=O)ccn1C [Deferiprone, 1,2-dimethyl-3-hydroxy-pyridin-4-one]
Log 10 K(assoc) [1]: 36
inhibition of growth [2]: about 15%
growth at 640 μg/ml streptomycin ([3]; chelator added 15 mM Fe binding equivalents): still allowed slight growth
growth of the yeast compared to control [4]: did not substantially restrict growth

SMILES: C/C=C/C=C/C(=O)[O-].[K+] [Sorbate, potassium sorbate]
MIC ([5]; ATCC10231, 48 h, read-out: Sorbate or Paraben MIC, plus soluble chelating composition (Example 4) 25 μg/ml, 2 days): < 20 mg/L
MIC ([5]; ATCC10231, 48 h, read-out: Sorbate or Paraben MIC, plus soluble chelating composition (Example 4) […], 2 days): < 20 mg/L
MIC ([5]; ATCC10231, 48 h, read-out: Sorbate or Paraben MIC, preservative alone, 2 days): 120 mg/L
MIC ([5]; ATCC10231, 240 h, read-out: Sorbate or Paraben MIC, plus soluble chelating composition (Example 4) 25 μg/ml, 10 days): 30 mg/L
MIC ([5]; ATCC10231, 240 h, read-out: Sorbate or Paraben MIC, plus soluble chelating composition (Example 4) […], 10 days): < 20 mg/L
MIC ([5]; ATCC10231, 240 h, read-out: Sorbate or Paraben MIC, preservative alone, 10 days): 250 mg/L
yeast growth (OD 600 nm over 120 hr) [6]: prevented growth completely

MIC ([7]; ATCC10231, 96 h, Fluconazole alone, 4 d): > 6 mg/L
MIC ([7]; ATCC10231, 96 h, plus 25 μg/ml soluble chelator (example 4), 4 d): < 0.05 mg/L
MIC ([7]; ATCC10231, 96 h, plus Fe-saturated soluble chelator, 4 d): > 6 mg/L
MIC ([7]; ATCC10231, 96 h, plus […] soluble chelator (Example 4), 4 d): < 0.05 mg/L
MIC ([7]; ATCC10231, 240 h, Fluconazole alone, 10 d): > 6 mg/L
MIC ([7]; ATCC10231, 240 h, plus 25 μg/ml soluble chelator (example 4), 10 d): < 0.05 mg/L
MIC ([7]; ATCC10231, 240 h, plus Fe-saturated soluble chelator, 10 d): > 6 mg/L
MIC ([7]; ATCC10231, 240 h, plus […] soluble chelator (Example 4), 10 d): 0.05 mg/L
MIC ([7]; ATCC10231, Fluconazole alone, 42 d): > 6 mg/L
MIC ([7]; ATCC10231, plus 25 μg/ml Soluble chelator (Example 4), 42 d): < 0.05 mg/L
MIC ([7]; ATCC10231, plus Fe-saturated soluble chelator, 42 d): > 6 mg/L
MIC ([7]; ATCC10231, plus […] soluble chelator (Example 4), 42 d): 0.19 mg/L
SMILES: OC(Cn1cncn1)(Cn1cncn1)c1ccc(F)cc1F [Fluconazole]
yeast growth (OD 600 nm over 120 hr) ([8]; fluconazole 0.083 μg/ml alone): only delayed and partially restricted yeast growth
yeast growth (OD 600 nm over 120 hr) ([8]; fluconazole 0.083 μg/ml with 0.3 mg soluble chelator (example 4) in the semi-permeable device): prevented growth completely
